{"source": "paper PMC7926726", "about": "“The Wound Healing Peptide, AES16-2M, Ameliorates Atopic Dermatitis In Vivo” (Molecules, 2021)", "assay": "Water solubility of the peptide", "assay_type": "physicochemical", "settings": "in water; analysed by Anygen; previously described [16] and updated in this study", "procedure": "To investigate whether the wound healing peptide, AES16-2M, could improve AD, Dermatophagoides farina (Df) body-induced AD model was established, and 10 mg/kg of AES16-2M was used as the optimal dose determined by preliminary experiments. […] Since increased IgE and TSLP production is closely related to AD pathology, the total IgE levels from sera were determined.\nAES16-2M was synthesized and analyzed for purity, water solubility, and molecular weight by Anygen (Gwang Ju, Korea). Peptide with purity over 95% was used for this study.", "note": "Ends that are not written are not given here.", "data": [{"substance": "REGRT [AES16-2M]", "values": [{"measurement": "water solubility", "result": "over 10.0 mg/mL"}]}]}
